Test results reported in US20240391940A1, “FUSED RING-CONTAINING COMPOUND, APPLICATION THEREOF, AND COMPOSITION CONTAINING SAME” (GenEros Biopharma Ltd., priority 2020, published 2024).
Like-named read-outs stand apart in the source and are kept apart here.

What was measured:
[1] = PK profile in SD rats (i.v. / oral gavage, plasma LC-MS); format: in vivo; conditions: female, rat; for Vd: read-out: Vdss
Text: (§1) Method: SD rats from acceptable sources (N=3, female, 6-8 weeks, weighing 200-230 g, purchased from JH Laboratory Animal Co. LTD, SCXK (SH) 2017-0012 20170012001153) or beagles (N=3, not experimentally naive animals, female, weighing 6.55-8.62 kg, purchased from Beijing Marshall Biotech Co. Ltd., quality inspection number SCXK (BJ) 2016-0001 110318201100068072) were selected and administered, by intravenous injection or oral gavage (3 animals per route), corresponding doses of the test compound GEN1-117 or GEN1-284s (the sample for intravenous injection was dissolved in a solution of 10% DMSO, 10% Soltol HS15 and 80% PBS, and the sample for oral administration was dissolved in a 0.5% aqueous methylcellulose solution). Peripheral blood samples (150 μL) were taken (at 0, 0.083, 0.25, 0.5, 1, 2, 4, 8 and 24 h for the intravenous injection route; at 0, 0.25, 0.5, 1, 2, 4, 8 and 24 h for the oral injection route; into K2-EDTA anticoagulant tubes; centrifuged at 2000 g at 4 C for 5 min within 15 min), and plasma was separated and subjected to LC-MS analysis (LC-MS/MS-37, triple Quad 6500) using the conventional method with diclofenac as an internal standard. Mass spectrometry conditions: ESI cation, MRM detection:
(§2) HPLC conditions: mobile phase A: 0.1% FA in water, mobile phase B: 0.1% FA in ACN
(§3) Chromatography column: Waters ACQUITY UPLC HSS T3 (2.1×50 mm, 1.8 μm)
(§4) A test sample standard curve was prepared from 1, 2, 10, 30, 100, 300, 1000, 2700 and 3000 ng/mL (50% ACN in water), and 3 μL of standard-curve solution was mixed with 57 μL of same-species blank plasma. A test plasma sample (60 μL) was well mixed with 6 μL of 10% FA in water, and 30 μL of the mixture was taken and well mixed with 200 μL of the internal standard compound diclofenac (40 ng/mL in ACN). After the resulting mixture was vortexed and shaken for 1 min and centrifuged at 5800 rpm for 10 min, 100 μL of the supernatant was transferred to a new test plate, and 1 μL of solution was loaded on an LC-MS/MS system.

[2] = PK profile in beagles (i.v. / oral gavage, plasma LC-MS); format: in vivo; conditions: female, beagle, dog, analyte = labelled compound
Text: as §1, §2, §3, §4

[3] = target: T1, hERG (Homo sapiens, UniProt Q12809); assay: hERG ion channel inhibition, automated QPatch on CHO cells expressing hERG; format: cell-based; conditions: human, CHO cells stably expressing hERG channels
T1 construct: expressed in transfected cells; host or cells: CHO cells, stably transfected
Method: (§5) A CHO cell line stably transfected with cDNA and expressing hERG channels of P15 was used for the study.
(§6) Cells were maintained in Petri dishes or flasks at 37° C. in a humidified incubator with 5% CO2 and cultured in a medium containing Ham's F12, 10% (v/v) heat-inactivated FBS, 100 μg/mL hygromycin B and 100 μg/mL geneticin (from Invitrogen). The cells were allowed to grow and reach a confluency of about 80-90% under the above conditions. Before the experiment, the cells were treated with Detachin (from Genlantis) for 3-5 min, at 37° C., then gently mixed well with medium at room temperature, and titrated 15-20 times with a pipette. Then the cells were resuspended in a serum-free medium containing CHO—S-SFM II medium (from Invitrogen) buffered with HEPES (25 mM). The cells used in QPatch study must meet the following criteria: under microscopy examination, the majority of cells in suspension should be single and isolated; their viability should be greater than 95%, with only a small amount of debris and cell clumps (which may clog the holes in QPlate during whole-cell clamp recording); the cell density should be within the range of 3-8×10^6 cells/mL in the final suspension before application to the QPatch stir chamber. Cells under such conditions can be used for recording only within four hours of being harvested.
(§7) Data acquisition was performed using automated QPatch (Sophion Biosciences, Denmark). The cells were voltage-clamped at a holding potential of −80 mV. The hERG current was activated by depolarization at +20 mV for 5 s, after which the current was activated back to −50 mV for 2.5 s to remove the inactivation and observe the outward tail current. The maximum amount of tail current was used to determine hERG current amplitude.
(§8) Six doses (30, 10, 3, 1, 0.3 and 0.1 μM) were selected to obtain a fitted curve and IC^50. The compound was prepared into serial dilutions in 3, 1, 0.3 and 0.1 mM DMSO vehicle to the final M ranges before the QPatch test. 5-10 minutes' ultrasonication and vortexing were generally used for solution to help completely dissolve the compound. The final DMSO concentration was 0.1% or lower, except that for the 30 μM point, the DMSO concentration was about 0.3%.
(§9) After achieving break-in (whole-cell) configuration, the cells were recorded for 120 s to assess current stability. The voltage settings described above were then applied to the cells once every 15 s throughout the whole process. Only stable cells with recording parameters above threshold were allowed to enter the drug assessment procedure. All the experiments were conducted at room temperature (about 25° C.).
(§10) An external solution containing 0.1% DMSO (vehicle) was applied to the cells to establish a baseline. After allowing the current to stabilize for 3 min, the compound was added. The compound solution was added and the cells were kept in the test solution until the effect of the compound reached a steady state or for a maximum of 4 min. For dose response assays, the compound was applied cumulatively to the cells from low to high concentrations. Washing with external solution was performed after compound testing. The positive control cisapride was used in the experiments to test the same batch of cells used for test compounds to ensure the normal response and the good quality of the cells.

[4] = target: T2, hERG ion channel (Homo sapiens, UniProt Q12809); assay: as above; format: cell-based; conditions: for Inhibitory activity against hERG (conclusion): 0.1-30 μM; for inhibition at 0.3 µM / inhibition at 1 µM / inhibition at 3 µM: human, CHO cells stably expressing hERG channels
T2 construct: expressed in transfected cells; host or cells: CHO cells, stably transfected
Method: as §5, §6, §7, §8, §9, §10

[5] = iv, 1 mg/kg, GEN1-117 dosed i.v. 1 mg/kg
[6] = iv, 1 mg/kg, GEN1-284s dosed i.v. 1 mg/kg, analyte = labelled compound
[7] = iv, GEN1-117 dosed i.v. 1 mg/kg
[8] = po, 10 mg/kg, GEN1-117 dosed p.o. 10 mg/kg
[9] = po, 10 mg/kg, GEN1-284s dosed p.o. 10 mg/kg, analyte = labelled compound
[10] = po, GEN1-284s dosed p.o. 10 mg/kg, analyte = labelled compound
[11] = iv, GEN1-284s dosed i.v. 0.5 mg/kg
[12] = po, GEN1-284s dosed p.o. 5 mg/kg
[13] = read-out: % of hERG inhibition, Cell 1
[14] = read-out: % of hERG inhibition, Cell 2
[15] = read-out: Mean % hERG inhibition
[16] = iv, GEN1-284s dosed i.v. 1 mg/kg, analyte = labelled compound

T1 sequence (Q12809 whole entry): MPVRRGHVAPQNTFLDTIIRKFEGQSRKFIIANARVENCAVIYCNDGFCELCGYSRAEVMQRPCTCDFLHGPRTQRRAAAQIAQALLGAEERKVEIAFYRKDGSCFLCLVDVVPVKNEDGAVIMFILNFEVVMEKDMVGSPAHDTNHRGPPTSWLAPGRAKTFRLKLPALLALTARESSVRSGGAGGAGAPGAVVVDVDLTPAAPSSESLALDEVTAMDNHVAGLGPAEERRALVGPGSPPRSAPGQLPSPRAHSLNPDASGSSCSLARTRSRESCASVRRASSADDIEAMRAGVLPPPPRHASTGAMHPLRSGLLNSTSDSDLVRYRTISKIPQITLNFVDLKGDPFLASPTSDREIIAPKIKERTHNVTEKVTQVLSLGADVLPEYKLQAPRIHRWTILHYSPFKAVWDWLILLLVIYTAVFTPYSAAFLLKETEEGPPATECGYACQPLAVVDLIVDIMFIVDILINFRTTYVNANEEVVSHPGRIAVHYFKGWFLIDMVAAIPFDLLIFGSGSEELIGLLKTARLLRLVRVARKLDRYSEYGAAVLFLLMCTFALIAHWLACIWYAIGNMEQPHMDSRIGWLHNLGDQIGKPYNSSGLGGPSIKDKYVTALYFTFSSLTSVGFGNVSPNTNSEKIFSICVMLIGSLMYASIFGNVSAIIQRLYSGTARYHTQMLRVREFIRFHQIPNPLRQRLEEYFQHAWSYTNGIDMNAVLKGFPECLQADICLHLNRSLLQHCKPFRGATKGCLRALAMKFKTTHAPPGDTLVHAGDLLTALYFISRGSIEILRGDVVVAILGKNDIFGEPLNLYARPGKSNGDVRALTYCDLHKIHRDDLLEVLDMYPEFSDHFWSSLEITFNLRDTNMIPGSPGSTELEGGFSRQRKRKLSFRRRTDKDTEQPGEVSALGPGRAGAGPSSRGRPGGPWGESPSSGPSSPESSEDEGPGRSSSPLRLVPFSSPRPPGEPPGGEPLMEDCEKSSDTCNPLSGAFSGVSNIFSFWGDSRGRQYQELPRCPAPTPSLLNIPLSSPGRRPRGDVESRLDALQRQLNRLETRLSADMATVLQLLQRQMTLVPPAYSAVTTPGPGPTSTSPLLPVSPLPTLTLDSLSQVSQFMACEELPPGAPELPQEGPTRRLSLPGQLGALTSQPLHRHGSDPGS
T2 sequence (Q12809 whole entry): as above

## O=C(Cc1ccc2ncccc2c1)N1CCC(n2c(=O)[nH]c3cccc(C(F)(F)F)c32)CC1 [GEN1-117, 1-(1-(2-(Quinolin-6-yl)acetyl)piperidin-4-yl)-7-(trifluoromethyl)-1H-benzo[d]imidazol-2(3H)-one]
[1]; [5]
  AUC(0-t): 1640 ng·h/mL
  half-life: 4.2 h
[1]; [6]
  AUC(0-t): 1510 ng·h/mL
  half-life: 4.16 h
[1]; [7]
  clearance: 10.3 mL/min/kg
  Vd: 2.75 L/kg
[1]; oral, GEN1-117 dosed p.o. 10 mg/kg vs i.v. 1 mg/kg
  bioavailability: 2.6%
[1]; [8]
  AUC(0-t): 423 ng·h/mL
  Cmax: 42.8 ng/mL
  Tmax: 4 h
  half-life: 4.28 h
[1]; [9]
  AUC(0-t): 14600 ng·h/mL
  Cmax: 2440 ng/mL
  Tmax: 2 h
  half-life: 3.82 h
[1]; [10]
  bioavailability: 96.3%
[2]; [11]
  AUC(0-t): 2000 ng·h/mL
  half-life: 4.06 h
[2]; [12]
  AUC(0-t): 17900 ng·h/mL
  Cmax: 2770 ng/mL
  Tmax: 1.33 h
  bioavailability: 89.8%
  half-life: 4.18 h
[3]; [13]
  inhibition at 0.1 µM: 3.84%
  inhibition at 0.3 µM: 3.95%
  inhibition at 10 µM: 12.8%
  inhibition at 30 µM: 12.8%
[3]; [14]
  inhibition at 0.1 µM: -0.21%
  inhibition at 10 µM: 19.3%
  inhibition at 30 µM: 19.3%
[3]; [15]
  inhibition at 0.1 µM: 1.81%
  inhibition at 10 µM: 16%
  inhibition at 30 µM: 16%
[4]
  Inhibitory activity against hERG (conclusion): no significant inhibitory activity against hERG
[4]; [14]
  inhibition at 0.3 µM: 4.17%
  inhibition at 1 µM: 13.4%
  inhibition at 3 µM: 13.3%
[4]; [15]
  inhibition at 0.3 µM: 4.06%
  inhibition at 1 µM: 10.7%
  inhibition at 3 µM: 12.2%
[4]; [13]
  inhibition at 1 µM: 7.99%
  inhibition at 3 µM: 11%

## O=C(Cc1ccc2ncccc2c1)N1CCC(n2c(=O)n(COP(=O)([O-])[O-])c3cccc(C(F)(F)F)c32)CC1.[Na+].[Na+] [GEN1-284 salt, (2-Oxo-3-(1-(2-(quinolin-6-yl)acetyl)piperidin-4-yl)-4-(trifluoromethyl)-2,3-dihydro-1H-benzo[d]imidazol-1-yl)methyl disodium phosphate]
[1]; [16]
  AUC(0-t): 2750 ng·h/mL
  clearance: 6.23 mL/min/kg
  half-life: 0.39 h
  Vd: 0.047 L/kg
[1]; [9]
  Tmax: 0.42 h
[1]; [10]
  AUC(0-t): 5.72 ng·h/mL
  Cmax: 6.04 ng/mL
  half-life: 0.95 h
[2]; [11]
  AUC(0-t): 207 ng·h/mL
  clearance: 43.5 mL/min/kg
  half-life: 0.085 h
[2]; iv, GEN1-284s dosed i.v. 0.5 mg/kg, read-out: Vdss
  Vd: 0.155 L/kg
[3]; [13]
  inhibition at 0.1 µM: 2.22%
  inhibition at 0.3 µM: 10.2%
  inhibition at 10 µM: 9.28%
  inhibition at 30 µM: 19.1%
[3]; [14]
  inhibition at 0.1 µM: 8.28%
  inhibition at 10 µM: 3.41%
  inhibition at 30 µM: 8.86%
[3]; [15]
  inhibition at 0.1 µM: 5.25%
  inhibition at 10 µM: 6.34%
  inhibition at 30 µM: 13.9%
[4]
  Inhibitory activity against hERG (conclusion): no significant inhibitory activity against hERG
[4]; [14]
  inhibition at 0.3 µM: 2.25%
  inhibition at 1 µM: 0%
  inhibition at 3 µM: 2.66%
[4]; [15]
  inhibition at 0.3 µM: 6.24%
  inhibition at 1 µM: 1.44%
  inhibition at 3 µM: 1.33%
[4]; [13]
  inhibition at 1 µM: 2.88%
  inhibition at 3 µM: 0%
